Test results taken from patent publication US9776995B2, “Bicyclic sulfonamide compounds as sodium channel inhibitors” (AMGEN INC., priority 2013, dated 2017).
Where two headings read alike, the source gives them in different places.

Columns and labels:
[1] = target: Nav 1.7 (Homo sapiens (Human), UniProt Q15858); experiment: in-vitro Nav 1.7 PX data; type: cell-based
[2] = target: Nav 1.5 (Homo sapiens (Human), UniProt Q14524); experiment: in-vitro Nav 1.5 PX data; settings: read-out: Nav 1.5 PX IC50
Sequence of Nav 1.5 (Q14524 whole entry): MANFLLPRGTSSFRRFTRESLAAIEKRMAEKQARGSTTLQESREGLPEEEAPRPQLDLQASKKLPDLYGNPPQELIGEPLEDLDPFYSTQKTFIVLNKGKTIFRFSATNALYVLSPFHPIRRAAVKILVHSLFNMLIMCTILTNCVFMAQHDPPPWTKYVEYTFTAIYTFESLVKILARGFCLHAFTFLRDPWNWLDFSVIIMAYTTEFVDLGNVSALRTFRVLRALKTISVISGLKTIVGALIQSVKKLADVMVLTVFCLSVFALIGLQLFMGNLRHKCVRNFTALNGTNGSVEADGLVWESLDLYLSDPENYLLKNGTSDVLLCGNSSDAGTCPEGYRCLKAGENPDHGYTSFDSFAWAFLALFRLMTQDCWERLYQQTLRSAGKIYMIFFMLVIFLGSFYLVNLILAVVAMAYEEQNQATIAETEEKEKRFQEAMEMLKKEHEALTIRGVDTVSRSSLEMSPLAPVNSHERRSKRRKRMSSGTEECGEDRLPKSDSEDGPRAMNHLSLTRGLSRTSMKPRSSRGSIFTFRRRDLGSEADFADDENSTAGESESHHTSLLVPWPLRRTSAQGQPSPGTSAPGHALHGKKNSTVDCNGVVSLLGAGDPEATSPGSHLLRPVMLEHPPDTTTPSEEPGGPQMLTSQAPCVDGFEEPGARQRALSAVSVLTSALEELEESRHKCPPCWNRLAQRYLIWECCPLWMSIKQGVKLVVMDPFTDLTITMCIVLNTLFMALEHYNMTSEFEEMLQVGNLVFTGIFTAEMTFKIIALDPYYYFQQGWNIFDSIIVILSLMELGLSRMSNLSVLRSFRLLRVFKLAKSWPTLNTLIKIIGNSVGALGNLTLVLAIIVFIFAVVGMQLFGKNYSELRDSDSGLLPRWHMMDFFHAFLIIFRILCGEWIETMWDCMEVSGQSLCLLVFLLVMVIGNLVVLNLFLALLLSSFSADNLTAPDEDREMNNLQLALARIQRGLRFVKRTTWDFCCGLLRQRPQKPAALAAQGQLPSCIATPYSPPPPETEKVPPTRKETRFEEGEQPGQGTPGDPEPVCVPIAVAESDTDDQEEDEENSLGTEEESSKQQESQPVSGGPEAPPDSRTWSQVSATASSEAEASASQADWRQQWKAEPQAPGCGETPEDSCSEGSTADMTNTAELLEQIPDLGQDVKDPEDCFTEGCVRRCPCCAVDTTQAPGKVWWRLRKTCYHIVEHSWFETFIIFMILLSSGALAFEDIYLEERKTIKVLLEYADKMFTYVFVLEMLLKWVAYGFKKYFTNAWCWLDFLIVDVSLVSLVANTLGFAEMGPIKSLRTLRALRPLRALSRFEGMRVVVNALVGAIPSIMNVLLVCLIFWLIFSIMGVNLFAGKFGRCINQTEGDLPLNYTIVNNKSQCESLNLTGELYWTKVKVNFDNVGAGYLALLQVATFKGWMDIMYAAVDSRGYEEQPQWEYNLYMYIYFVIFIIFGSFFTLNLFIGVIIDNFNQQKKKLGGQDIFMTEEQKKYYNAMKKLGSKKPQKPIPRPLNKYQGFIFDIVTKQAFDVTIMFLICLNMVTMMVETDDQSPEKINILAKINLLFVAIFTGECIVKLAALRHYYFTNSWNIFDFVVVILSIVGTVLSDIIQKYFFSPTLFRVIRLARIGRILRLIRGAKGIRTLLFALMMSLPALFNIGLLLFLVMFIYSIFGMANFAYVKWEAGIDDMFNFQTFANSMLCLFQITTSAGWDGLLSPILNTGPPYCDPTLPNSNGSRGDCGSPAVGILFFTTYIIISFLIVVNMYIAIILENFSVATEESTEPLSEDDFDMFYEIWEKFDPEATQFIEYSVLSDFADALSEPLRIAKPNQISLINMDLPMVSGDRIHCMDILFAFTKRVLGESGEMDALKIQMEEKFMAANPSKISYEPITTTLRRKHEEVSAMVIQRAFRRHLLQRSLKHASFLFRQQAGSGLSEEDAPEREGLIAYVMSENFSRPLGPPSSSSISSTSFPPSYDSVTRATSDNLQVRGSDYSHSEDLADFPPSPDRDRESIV

Sequence of Nav 1.7 (Q15858 whole entry): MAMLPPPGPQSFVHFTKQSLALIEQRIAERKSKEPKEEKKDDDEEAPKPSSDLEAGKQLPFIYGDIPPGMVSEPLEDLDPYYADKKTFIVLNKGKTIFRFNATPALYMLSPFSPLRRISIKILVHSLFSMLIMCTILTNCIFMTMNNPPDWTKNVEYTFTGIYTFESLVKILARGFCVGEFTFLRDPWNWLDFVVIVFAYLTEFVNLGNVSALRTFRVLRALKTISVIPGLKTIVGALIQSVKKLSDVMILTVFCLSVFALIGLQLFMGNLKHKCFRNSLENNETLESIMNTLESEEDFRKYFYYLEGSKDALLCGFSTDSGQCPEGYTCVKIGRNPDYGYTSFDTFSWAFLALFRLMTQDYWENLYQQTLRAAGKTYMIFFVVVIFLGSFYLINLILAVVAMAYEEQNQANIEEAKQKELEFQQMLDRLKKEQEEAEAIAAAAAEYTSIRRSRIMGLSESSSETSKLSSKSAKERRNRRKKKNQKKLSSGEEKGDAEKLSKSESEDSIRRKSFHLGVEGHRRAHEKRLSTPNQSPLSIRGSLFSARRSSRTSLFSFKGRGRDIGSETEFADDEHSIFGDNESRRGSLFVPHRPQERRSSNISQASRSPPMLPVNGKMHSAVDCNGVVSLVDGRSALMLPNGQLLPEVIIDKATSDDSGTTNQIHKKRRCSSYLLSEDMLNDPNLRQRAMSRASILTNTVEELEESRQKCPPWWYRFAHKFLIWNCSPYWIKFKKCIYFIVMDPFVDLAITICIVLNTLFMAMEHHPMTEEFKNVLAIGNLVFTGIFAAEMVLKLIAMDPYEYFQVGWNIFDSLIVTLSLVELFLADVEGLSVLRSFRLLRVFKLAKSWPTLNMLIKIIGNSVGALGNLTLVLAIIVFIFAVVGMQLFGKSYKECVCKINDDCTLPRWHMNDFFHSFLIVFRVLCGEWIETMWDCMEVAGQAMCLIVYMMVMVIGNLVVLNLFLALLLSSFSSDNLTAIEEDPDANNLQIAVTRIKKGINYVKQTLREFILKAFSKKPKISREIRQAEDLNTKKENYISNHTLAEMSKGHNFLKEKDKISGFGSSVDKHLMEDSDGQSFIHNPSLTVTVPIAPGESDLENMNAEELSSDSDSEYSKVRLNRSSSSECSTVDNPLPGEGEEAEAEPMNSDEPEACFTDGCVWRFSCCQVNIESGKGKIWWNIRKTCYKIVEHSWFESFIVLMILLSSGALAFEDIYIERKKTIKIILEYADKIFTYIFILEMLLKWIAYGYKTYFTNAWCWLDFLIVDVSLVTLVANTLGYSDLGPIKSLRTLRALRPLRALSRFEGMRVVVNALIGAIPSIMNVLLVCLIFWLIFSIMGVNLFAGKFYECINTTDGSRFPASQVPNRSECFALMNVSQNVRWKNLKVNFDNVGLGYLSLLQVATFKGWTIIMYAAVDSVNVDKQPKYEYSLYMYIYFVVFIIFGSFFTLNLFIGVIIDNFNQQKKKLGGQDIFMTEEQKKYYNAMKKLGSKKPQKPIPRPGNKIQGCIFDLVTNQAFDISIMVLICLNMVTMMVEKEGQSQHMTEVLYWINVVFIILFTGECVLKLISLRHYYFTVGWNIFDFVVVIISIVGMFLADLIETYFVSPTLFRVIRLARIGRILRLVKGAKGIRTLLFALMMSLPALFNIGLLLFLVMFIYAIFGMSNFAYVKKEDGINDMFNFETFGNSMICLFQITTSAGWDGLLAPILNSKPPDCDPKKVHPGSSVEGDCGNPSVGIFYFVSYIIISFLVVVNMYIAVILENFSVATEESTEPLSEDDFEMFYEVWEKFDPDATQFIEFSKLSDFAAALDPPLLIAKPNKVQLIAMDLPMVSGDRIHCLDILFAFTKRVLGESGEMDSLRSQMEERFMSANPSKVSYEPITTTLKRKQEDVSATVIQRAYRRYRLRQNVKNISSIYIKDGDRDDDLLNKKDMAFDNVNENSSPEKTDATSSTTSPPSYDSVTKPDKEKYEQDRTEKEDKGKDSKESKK

O=S(=O)(Nc1ccon1)c1ccc2c(-c3ccc(-c4cccc(C(F)(F)F)c4)cc3CO)nccc2c1 [Example 146, 1-(3-(hydroxymethyl)-3′-(trifluoromethyl)-4-biphenylyl)-N-3-isoxazolyl-6-isoquinolinesulfonamide] was tested, and the IC50 ([1]; in-vitro Nav 1.7 PX data) was 0.12 µM and the IC50 ([2]; in-vitro Nav 1.5 PX data) was > 10 µM.

COc1cc(-c2ccc(C)c(F)c2)c(C#N)cc1-c1nccc2cc(S(=O)(=O)Nc3nncs3)ccc12 [Example 218, 1-(2-cyano-3′-fluoro-5-methoxy-4′-methyl-4-biphenylyl)-N-1,3,4-thiadiazol-2-yl-6-isoquinolinesulfonamide] was tested, and the IC50 ([1]; in-vitro PX) was 0.0229 µM and the IC50 ([2]; in-vitro PX) was > 10 µM.

In the case of COc1cc(-c2cccc(C(F)(F)F)c2)c(C#N)cc1-c1nccc2cc(S(=O)(=O)Nc3ncon3)ccc12 [Example 118, 1-(2-cyano-5-methoxy-3′-(trifluoromethyl)-4-biphenylyl)-N-1,2,4-oxadiazol-3-yl-6-isoquinolinesulfonamide], the IC50 ([1]; in-vitro PX data) is reported as 0.021 µM and the IC50 ([2]; in-vitro PX data) is reported as > 10 µM.

For COc1cc(-c2cc(F)cc(F)c2)ccc1-c1nccc2cc(S(=O)(=O)Nc3ccsn3)ccc12 [Example 5, 1-(3′,5′-DIFLUORO-3-METHOXY-[1,1′-BIPHENYL]-4-YL)-N-(ISOTHIAZOL-3-YL)ISOQUINOLINE-6-SULFONAMIDE 2,2,2-TRIFLUOROACETATE], the IC50 [1] was 0.337 µM and the IC50 ([2]; in-vitro PX data) was > 10 µM.

COc1cc(Cl)c(-c2cccc(F)c2)cc1-c1nccc2cc(S(=O)(=O)Nc3nncs3)ccc12 [Example 110, 1-(6-chloro-3′-fluoro-4-methoxy-3-biphenylyl)-N-1,3,4-thiadiazol-2-yl-6-isoquinolinesulfonamide] was tested, and the IC50 ([1]; in-vitro PX data) was 0.109 µM and the IC50 ([2]; in-vitro PX data) was > 10 µM.

In the case of COc1cc(Cl)c(-c2cccc(F)c2)cc1-c1nccc2cc(S(=O)(=O)Nc3ncccn3)ccc12 [Example 122, 1-(6-chloro-3′-fluoro-4-methoxy-3-biphenylyl)-N-2-pyrimidinyl-6-isoquinolinesulfonamide], the IC50 ([1]; in-vitro PX data) is reported as 0.112 µM and the IC50 ([2]; in-vitro PX data) is reported as > 10 µM.

For COc1cc(-c2cccc(F)c2)c(Cl)cc1-c1ncc(C#N)c2cc(S(=O)(=O)Nc3ccon3)ccc12 [Example 27, 1-(2-CHLORO-3′-FLUORO-5-METHOXY-[1,1′-BIPHENYL]-4-YL)-4-CYANO-N-(ISOXAZOL-3-YL)ISOQUINOLINE-6-SULFONAMIDE], the IC50 [1] was 0.282 µM and the IC50 ([2]; in-vitro PX) was > 10 µM.

COc1cc(-c2ccc(Cl)c(C)c2)c(C#N)cc1-c1nccc2cc(S(=O)(=O)Nc3ccon3)ccc12 [Example 82, 1-(4′-chloro-2-cyano-5-methoxy-3′-methyl-4-biphenylyl)-N-3-isoxazolyl-6-isoquinolinesulfonamide] was tested, and the IC50 ([1]; PatchXpress (PX), in vitro) was 0.0261 µM and the IC50 ([2]; PatchXpress (PX), in vitro) was > 10 µM.

COc1cc(-c2cccc(F)c2)c(Cl)cc1-c1nncc2cc(S(=O)(=O)Nc3ccon3)ccc12 [Example 10, 1-(2-CHLORO-3′-FLUORO-5-METHOXY-[1,1′-BIPHENYL]-4-YL)-N-(ISOXAZOL-3-YL)PHTHALAZINE-6-SULFONAMIDE] was tested, and the IC50 ([1]; in-vitro PX data) was 0.0841 µM and the IC50 ([2]; in-vitro PX data) was > 10 µM.

With COc1cc(NS(=O)(=O)c2ccc3c(-c4ccc(-c5cc(F)cc(F)c5)cc4OC)nccc3c2)ncn1 [Example 125, 1-(3′,5′-difluoro-3-methoxy-4-biphenylyl)-N-(6-methoxy-4-pyrimidinyl)-6-isoquinolinesulfonamide] the IC50 ([1]; in-vitro PX data) was 0.497 µM and the IC50 ([2]; in-vitro PX data) was > 10 µM.

In the case of COc1cc(-c2cc(F)cc(F)c2)c(C)cc1-c1nccc2cc(S(=O)(=O)Nc3nncs3)ccc12 [Example 172, 1-(3′,5′-difluoro-5-methoxy-2-methyl-4-biphenylyl)-N-1,3,4-thiadiazol-2-yl-], the IC50 ([1]; in-vitro Nav 1.7 PX data) is reported as 0.0349 µM and the IC50 ([2]; in-vitro Nav 1.5 PX data) is reported as > 10 µM.

With COc1cc(-c2cc(F)cc(F)c2)ccc1-c1nccc2cc(S(=O)(=O)Nc3ccon3)ccc12 [Example 142, 1-(3′,5′-difluoro-3-methoxy-4-biphenylyl)-N-3-isoxazolyl-6-isoquinolinesulfonamide] the IC50 ([1]; in-vitro Nav 1.7 PX data) was 0.168 µM and the IC50 ([2]; in-vitro Nav 1.5 PX data) was > 30 µM.

COc1ccc(Oc2ccc(-c3nccc4cc(S(=O)(=O)Nc5ccncn5)ccc34)c(OC)c2)cc1 [Example 182, 1-(2-methoxy-4-(4-methoxyphenoxy)phenyl)-N-4-pyrimidinyl-6-isoquinolinesulfonamide] was tested, and the IC50 ([1]; in-vitro PX (PatchXpress) data) was 0.305 µM and the IC50 ([2]; in-vitro PX (PatchXpress) data) was > 10 µM.

In the case of COc1cc(-c2ccc(F)c(F)c2)c(C)cc1-c1ncnc2cc(S(=O)(=O)Nc3ccon3)ccc12 [Example 199, 4-(3′,4′-difluoro-5-methoxy-2-methyl-4-biphenylyl)-N-3-isoxazolyl-7-quinazolinesulfonamide], the IC50 ([1]; in-vitro PX (PatchXpress) data) is reported as 0.036 µM and the IC50 ([2]; in-vitro PX (PatchXpress) data) is reported as > 10 µM.

In the case of COc1cc(-c2cccc(F)c2)c(Cl)cc1-c1nccc2cc(S(=O)(=O)Nc3ccon3)c(F)cc12 [Example 43, 1-(2-CHLORO-3′-FLUORO-5-METHOXY-[1,1′-BIPHENYL]-4-YL)-7-FLUORO-N-(ISOXAZOL-3-YL)ISOQUINOLINE-6-SULFONAMIDE], the IC50 ([1]; PatchXpress (PX), in vitro) is reported as 0.0456 µM and the IC50 ([2]; PatchXpress (PX), in vitro) is reported as > 10 µM.

For COc1cc(-c2cc(F)cc(F)c2)ccc1-c1nccc2cc(S(=O)(=O)Nc3cnsn3)ccc12 [Example 129, 1-(3′,5′-difluoro-3-methoxy-4-biphenylyl)-N-1,2,5-thiadiazol-3-yl-6-isoquinolinesulfonamide], the IC50 ([1]; in-vitro PX data) was 0.428 µM and the IC50 ([2]; in-vitro PX data) was > 10 µM.

“1-(2-chloro-3′-fluoro-5-methoxy-4-biphenylyl)-N-2-pyrimidinyl-6-isoquinolinesulfonamide [Example 108]” was tested, and the IC50 ([1]; in-vitro PX data) was 0.0862 µM and the IC50 ([2]; in-vitro PX data) was > 10 µM.

In the case of COc1cc(-c2cccc(F)c2)c(Cl)cc1-c1n[nH]c(=O)c2cc(S(=O)(=O)Nc3nncs3)ccc12 [Example 14, 1-(2-CHLORO-3′-FLUORO-5-METHOXY-[1,1′-BIPHENYL]-4-YL)-4-OXO-N-(1,3,4-THIADIAZOL-2-YL)-3,4-DIHYDROPHTHALAZINE-6-SULFONAMIDE], the IC50 [1] is reported as 0.131 µM and the IC50 ([2]; in-vitro PX (PatchXpress) data) is reported as > 10 µM.

COc1cc(Oc2ccc(F)cc2)ccc1-c1nccc2cc(S(=O)(=O)Nc3nncs3)ccc12 [Example 174, 1-(4-(4-fluorophenoxy)-2-methoxyphenyl)-N-1,3,4-thiadiazol-2-yl-6-isoquinolinesulfonamide] was tested, and the IC50 ([1]; in-vitro PX (PatchXpress) data) was 0.141 µM and the IC50 ([2]; in-vitro PX (PatchXpress) data) was > 10 µM.

For COc1cc(Oc2cc(C)cc(F)c2)ccc1-c1nccc2cc(S(=O)(=O)Nc3ccncn3)ccc12 [Example 179, 1-(4-(3-fluoro-5-methylphenoxy)-2-methoxyphenyl)-N-4-pyrimidinyl-6-isoquinolinesulfonamide], the IC50 ([1]; in-vitro PX (PatchXpress) data) was 0.077 µM and the IC50 ([2]; in-vitro PX (PatchXpress) data) was > 10 µM.

With COc1cc(-c2ccc(F)cc2)c(C#N)cc1-c1nccc2cc(S(=O)(=O)Nc3ccncn3)ccc12 [Example 186, 1-(2-cyano-4′-fluoro-5-methoxy-4-biphenylyl)-N-4-pyrimidinyl-6-isoquinolinesulfonamide] the IC50 ([1]; in-vitro PX (PatchXpress) data) was 0.15 µM and the IC50 ([2]; in-vitro PX (PatchXpress) data) was > 10 µM.

In the case of COc1cc(-c2cc(F)cc(F)c2)ccc1-c1nccc2cc(S(=O)(=O)Nc3nc(C)ns3)ccc12 [Example 130, 1-(3′,5′-difluoro-3-methoxy-4-biphenylyl)-N-(3-methyl-1,2,4-thiadiazol-5-yl)-6-isoquinolinesulfonamide], the IC50 ([1]; in-vitro PX data) is reported as 1.04 µM and the IC50 ([2]; in-vitro PX data) is reported as > 30 µM.

In the case of COc1cc(-c2cccc(C(F)(F)F)c2)c(C#N)cc1-c1ncnc2cc(S(=O)(=O)Nc3ccon3)ccc12 [Example 211, 4-(2-cyano-5-methoxy-3′-(trifluoromethyl)-4-biphenylyl)-N-3-isoxazolyl-7-quinazolinesulfonamide], the IC50 ([1]; in-vitro PX) is reported as 0.0169 µM and the IC50 ([2]; in-vitro PX) is reported as > 10 µM.

For COc1cc(-c2ccc(F)c(F)c2)c(C)cc1-c1nccc2cc(S(=O)(=O)Nc3nncs3)ccc12 [Example 171, 1-(3′,4′-difluoro-5-methoxy-2-methyl-4-biphenylyl)-N-1,3,4-thiadiazol-2-yl-6-isoquinolinesulfonamide], the IC50 ([1]; in-vitro Nav 1.7 PX data) was 0.0334 µM and the IC50 ([2]; in-vitro Nav 1.5 PX data) was > 10 µM.

COc1cc(-c2cc(F)cc(F)c2)ccc1-c1nccc2cc(S(=O)(=O)Nc3ncc(F)cn3)ccc12 [Example 135, 1-(3′,5′-difluoro-3-methoxy-4-biphenylyl)-N-(5-fluoro-2-pyrimidinyl)-6-isoquinolinesulfonamide] was tested, and the IC50 ([1]; in-vitro PX data) was 0.378 µM and the IC50 ([2]; in-vitro PX data) was > 10 µM.

In the case of COc1cc(-c2cc(F)cc(F)c2)c(C#N)cc1-c1nccc2cc(S(=O)(=O)Nc3ccncn3)ccc12 [Example 28, 1-(2-CYANO-3′,5′-DIFLUORO-5-METHOXY-[1,1′-BIPHENYL]-4-YL)-N-(PYRIMIDIN-4-YL)ISOQUINOLINE-6-SULFONAMIDE], the IC50 [1] is reported as 0.144 µM and the IC50 ([2]; in-vitro Nav 1.5 PX data) is reported as > 10 µM.

With COc1cc(-c2cc(F)cc(F)c2)ccc1-c1nccc2cc(S(=O)(=O)Nc3ncccn3)ccc12 [Example 123, 1-(3′,5′-difluoro-3-methoxy-4-biphenylyl)-N-2-pyrimidinyl-6-isoquinolinesulfonamide] the IC50 ([1]; in-vitro PX data) was 0.171 µM and the IC50 ([2]; in-vitro PX data) was > 10 µM.

With COc1cc(-c2ccc(-c3nccc4cc(S(=O)(=O)Nc5nncs5)ccc34)c(OC)c2)c(F)cn1 [Example 189, 1-(4-(5-fluoro-2-methoxy-4-pyridinyl)-2-methoxyphenyl)-N-1,3,4-thiadiazol-2-yl-6-isoquinolinesulfonamide] the IC50 ([1]; in-vitro PX (PatchXpress) data) was 0.394 µM and the IC50 ([2]; in-vitro PX (PatchXpress) data) was > 30 µM.

In the case of COc1cc(-c2ccc(F)c(Cl)c2)c(C#N)cc1-c1nccc2cc(S(=O)(=O)Nc3ccon3)ccc12 [Example 84, 1-(3′-chloro-2-cyano-4′-fluoro-5-methoxy-4-biphenylyl)-N-3-isoxazolyl-6-isoquinolinesulfonamide], the IC50 ([1]; PatchXpress (PX), in vitro) is reported as 0.0147 µM and the IC50 ([2]; PatchXpress (PX), in vitro) is reported as > 10 µM.

In the case of COc1cc(-c2cccc(F)c2)c(Cl)cc1-c1nncc2cc(S(=O)(=O)Nc3ncccn3)ccc12 [Example 113, 1-(2-chloro-3′-fluoro-5-methoxy-4-biphenylyl)-N-2-pyrimidinyl-6-phthalazinesulfonamide], the IC50 ([1]; in-vitro PX data) is reported as 0.095 µM and the IC50 ([2]; in-vitro PX data) is reported as > 10 µM.

For COc1cc(-c2ccccc2)ccc1-c1nccc2cc(S(=O)(=O)Nc3nncs3)ccc12 [Example 50], the IC50 ([1]; PatchXpress (PX), in vitro) was 0.174 µM and the IC50 ([2]; PatchXpress (PX), in vitro) was > 10 µM.

In the case of COc1cc(-c2cccc(F)c2)c(Cl)cc1-c1nn(C)c(=O)c2cc(S(=O)(=O)Nc3ccon3)ccc12 [Example 21, 1-(2-CHLORO-3′-FLUORO-5-METHOXY-[1,1′-BIPHENYL]-4-YL)-N-(ISOXAZOL-3-YL)-3-METHYL-4-OXO-3,4-DIHYDROPHTHALAZINE-6-SULFONAMIDE], the IC50 [1] is reported as 0.0424 µM and the IC50 ([2]; in-vitro PX) is reported as > 10 µM.
